This series in a line: excess molar enthalpy (molar enthalpy of mixing); xn = mol fraction of the nth substance listed. To be noted: 303.15 K, 101 kPa, Liquid, Calvet calorimetry.

Numbers after ± are expanded uncertainties.

On to `c1ccccc1` [benzene] + Cc1ccccc1, for which the excess molar enthalpy reads like this: (x2 = 0.247) 0.0543 ± 0.0015 kJ/mol; (x2 = 0.4944) 0.0713 ± 0.0017 kJ/mol; (x2 = 0.7685) 0.0477 ± 0.0015 kJ/mol.
In the case of `c1ccccc1` [benzene] + CCCCCCC, the excess molar enthalpy stood at 0.605 ± 0.007 kJ/mol (x1 = 0.2481), 0.923 ± 0.01 kJ/mol (x1 = 0.5) and 0.777 ± 0.0088 kJ/mol (x1 = 0.7576).
